Data on seven compounds can be found in PubChem BioAssay (NCI).

“And” between values parts separate entries of the source, which are not always exact repeats. Equal values may be shown once.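 Briefly, cells in 96-well plates were exposed to five compound concentrations for 48 h, and endpoints were estimated by linear interpolation. Abbreviation: GI50, concentration required for 50% inhibition of growth. TGI: total growth inhibition.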

Test systems include SK-OV-3 ovarian; BT-549 breast; RXF 393 renal; HS 578T breast; UACC-257 melanoma; CAKI-1 renal; SK-MEL-2 melanoma; MDA-MB-435; TK-10 renal; SR leukemia.
Common to all, as to experiment: DTP human tumour cell line panel, 48 h

For `CN(C)C(=O)Nc1nc2cc(Cl)c(Cl)cc2[nH]1`, the GI50 is 1.09 µM in the assay on SK-OV-3 ovarian; 2.79 µM with BT-549 breast; 1.63 µM in the assay with RXF 393 renal; 1.26 µM with HS 578T breast; above 100 µM with UACC-257 melanoma; 0.525 µM in the assay with CAKI-1 renal. Also, the GI50 in the assay with SK-MEL-2 melanoma was 4.55 µM; in the assay with MDA-MB-435 it was 0.2 µM; in the assay with TK-10 renal, 4.71 µM; with SR leukemia, 0.222 µM. For the same compound, the TGI in the assay with SK-OV-3 ovarian was above 56.6 µM; in the assay with BT-549 breast it was above 100 µM; in the assay with RXF 393 renal it was above 28.7 µM; with HS 578T breast, above 55.1 µM; in the assay with UACC-257 melanoma, above 100 µM; in the assay with CAKI-1 renal, above 23.5 µM. Moreover, the total growth inhibition concentration (TGI) is above 49.1 µM in the assay with SK-MEL-2 melanoma, 3.85 µM in the assay with MDA-MB-435 and above 100 µM in the assay with TK-10 renal.

Regarding `CCOc1ccc2c(-c3ccnc(Nc4cc(OC)cc(C(F)(F)F)c4)n3)cnn2n1`, the GI50 with SK-OV-3 ovarian was above 25 µM; with BT-549 breast, 18.2 µM; in the assay with RXF 393 renal, 10.8 µM; in the assay with HS 578T breast, above 17.4 µM; in the assay on UACC-257 melanoma, above 25 µM; in the assay on CAKI-1 renal, above 10.3 µM. Further, the GI50 with SK-MEL-2 melanoma is above 25 µM; with MDA-MB-435, 0.903 µM; with TK-10 renal, above 16.3 µM; with SR leukemia it was 1.32 µM. For the same compound, the TGI was above 25 µM in the assay on SK-OV-3 ovarian; above 25 µM in the assay with BT-549 breast; above 23.6 µM with RXF 393 renal; above 25 µM in the assay with HS 578T breast; above 25 µM in the assay with UACC-257 melanoma; above 25 µM in the assay with CAKI-1 renal. In addition, the concentration for total growth inhibition (TGI) was above 25 µM in the assay with SK-MEL-2 melanoma, above 10.5 µM in the assay with MDA-MB-435, above 25 µM in the assay with TK-10 renal and above 25 µM in the assay on SR leukemia.

With `COC(C)(C)[C@@H](O)[C@H](O)C[C@H](C)C1=C2CC[C@@H]3[C@@]4(C)CC[C@@H](OC(C)=O)C(C)(C)[C@@H]4C[C@@H](OC4OC(COC(C)=O)C(O)C(O)C4O)[C@@]3(C)[C@]2(C)CC1` (stereo partly drawn), the TGI was determined as 28.7 µM in the assay with SK-OV-3 ovarian; 28.7 µM with BT-549 breast; 19.5 µM in the assay with RXF 393 renal; 28.3 µM in the assay on HS 578T breast; 25.4 µM in the assay with UACC-257 melanoma; 14.8 µM in the assay with CAKI-1 renal. Besides, the values for the concentration for total growth inhibition (TGI) in the assay with SK-MEL-2 melanoma, in the assay on MDA-MB-435 and in the assay with SR leukemia were 26 µM, 25.6 µM and 14.3 µM, respectively. Also, the GI50 with BT-549 breast is 15.1 µM; with RXF 393 renal, 6.96 µM; in the assay with HS 578T breast, 11.8 µM; in the assay on UACC-257 melanoma it was 12.6 µM; in the assay on CAKI-1 renal it was 4.1 µM; with SK-MEL-2 melanoma it was 13.2 µM. Moreover, the GI50 with MDA-MB-435 is 12.3 µM; with SR leukemia, 3.06 µM.

As for `C#C[C@]1(O)CC[C@H]2[C@@H]3CC=C4c5sc(Nc6cc(F)ccc6F)nc5CC[C@]4(C)[C@H]3CC[C@@]21C`, the GI50 with SK-OV-3 ovarian was 2.78 µM; in the assay with BT-549 breast it was 0.661 µM; in the assay on RXF 393 renal it was 0.213 µM; with HS 578T breast, 0.424 µM; with UACC-257 melanoma, 1.83 µM; with CAKI-1 renal it was 1.38 µM. For the same compound, the GI50 in the assay with SK-MEL-2 melanoma was 1.59 µM; in the assay on MDA-MB-435, 2.07 µM; in the assay on TK-10 renal, 2.58 µM; in the assay on SR leukemia, 0.568 µM. In addition, the TGI turned out to be 10.2 µM in the assay on SK-OV-3 ovarian; 2.43 µM in the assay with BT-549 breast; 0.728 µM in the assay on RXF 393 renal; 7.13 µM in the assay with HS 578T breast; 4.31 µM in the assay with UACC-257 melanoma; 2.79 µM with CAKI-1 renal. The concentration for total growth inhibition (TGI) is 4.14 µM in the assay on SK-MEL-2 melanoma, 4.61 µM in the assay with MDA-MB-435, 5.37 µM in the assay with TK-10 renal and above 100 µM with SR leukemia.

For `COc1ccc2c(c1)nc(NNC(=O)c1cnccn1)c1cccn12`, the GI50 was 0.281 µM in the assay with SK-OV-3 ovarian; 0.917 µM in the assay on BT-549 breast; 0.689 µM in the assay with RXF 393 renal; 1.66 µM in the assay with HS 578T breast; 0.756 µM with UACC-257 melanoma; 0.659 µM with CAKI-1 renal. Moreover, the GI50 was 0.697 µM in the assay on SK-MEL-2 melanoma, 0.338 µM in the assay on MDA-MB-435, 0.157 µM with TK-10 renal and 0.24 µM in the assay on SR leukemia. Also, the total growth inhibition concentration (TGI) in the assay on SK-OV-3 ovarian came out at 3 µM; in the assay with BT-549 breast, 3.62 µM; in the assay with RXF 393 renal it was 2.47 µM; with HS 578T breast, 11.1 µM; in the assay on UACC-257 melanoma, 4.42 µM; in the assay on CAKI-1 renal, 4.81 µM. In addition, the TGI with SK-MEL-2 melanoma is 3.88 µM; in the assay with MDA-MB-435, 2.59 µM; with TK-10 renal, 3.18 µM; with SR leukemia it was above 41.3 µM.

With `O=[N+]([O-])c1cc[n+]([O-])c2ccccc12`, the GI50 is 1.78 µM in the assay with SK-OV-3 ovarian; 0.2 µM in the assay with BT-549 breast; 0.211 µM in the assay with RXF 393 renal; 0.216 µM in the assay on HS 578T breast; 0.229 µM in the assay on UACC-257 melanoma; 0.307 µM with CAKI-1 renal. Besides, the GI50 is 0.169 µM in the assay with SK-MEL-2 melanoma, 0.436 µM in the assay with MDA-MB-435, 0.187 µM in the assay with TK-10 renal and 0.0245 µM in the assay with SR leukemia. The TGI is 5.55 µM in the assay with SK-OV-3 ovarian; 0.728 µM in the assay on BT-549 breast; 0.619 µM in the assay on RXF 393 renal; 0.703 µM in the assay with HS 578T breast; 0.77 µM in the assay on UACC-257 melanoma; 0.937 µM in the assay on CAKI-1 renal. For the same compound, the concentration for total growth inhibition (TGI) is 0.377 µM with SK-MEL-2 melanoma, 1.31 µM in the assay with MDA-MB-435, 0.707 µM in the assay with TK-10 renal and above 100 µM with SR leukemia.

With `O=C(O)C[C@H](O)C[C@H](O)/C=C/c1c(C2CC2)nc2ccccc2c1-c1ccc(F)cc1`, the GI50 in the assay on SK-OV-3 ovarian is 26.1 µM and 6.6 µM; with BT-549 breast, 18.1 µM and 4.11 µM; with HS 578T breast, 6.45 µM and 2.1 µM; in the assay with UACC-257 melanoma it was above 100 µM; in the assay with CAKI-1 renal, 2.66 µM and 1.25 µM; with SK-MEL-2 melanoma, 4.06 µM. The GI50 in the assay with MDA-MB-435 is 14.6 µM and 6.04 µM; in the assay on SR leukemia, 2.59 µM and 0.615 µM. The TGI is above 100 µM in the assay with SK-OV-3 ovarian; above 100 µM in the assay on BT-549 breast; above 100 µM in the assay with HS 578T breast; above 100 µM with UACC-257 melanoma; 12.5 µM and 5.31 µM with CAKI-1 renal; above 100 µM in the assay on SK-MEL-2 melanoma. Besides, the TGI in the assay on MDA-MB-435, with TK-10 renal and in the assay on SR leukemia was above 100 µM in each case.
